Legend:
[1] = test system: angiogenesis in the mouse cornea; assay: mouse corneal micropocket assay (PAF-induced angiogenesis); assay type: in vivo, mice
From the text: The mouse corneal micropocket assay according to the procedure of B. M. Kenyon et al., “A model of angiogenesis in the mouse cornea,” Invest. Ophthalmol. Vis. Sci. vol. 37, pp. 1625-1632 (1996), was used to test whether LAU-8080 would inhibit angiogenesis.
Mouse corneal micropocket assay: Corneal micropockets were created with a modified von Graefe knife in both eyes of 5- to 6-weeks old mice. Pellets containing vehicle of 0.1% BSA in PBS with 12% polyhydroxyethylmetacrylate (Hydron) were implanted in the corneas at 1 mm from the limbus of the mice for a control. For the PAF experiment, 500 ng cPAF was added to the pellet with vehicle. For the PAF-LAU experiment, mice were implanted with Hydron pellets containing 0.1% BSA in PBS, 500 ng CPAF, and then treated with the PAF antagonist LAU-8080 (30 μg/g body weight), i.p., once a day. Six days later, corneal pictures were taken under the microscope and vessel length and clock hours of circumferential neovascularization were measured.

[2] = test system: middle cerebral artery occlusion and reperfusion; assay: middle cerebral artery occlusion (MCAO) and reperfusion stroke model; assay type: in vivo, mice (C57BL/6)
From the text: To study the properties of LAU-8080 in an animal model of stroke, the technique of occluding the middle cerebral artery (middle cerebral artery occlusion, “MCAO”) which has been adapted to the mouse was used. The mouse middle cerebral artery occlusion is a well-recognized model of focal stroke as neuronal damage occurs when ischemia-reperfusion damages the brain. Adult male mice (C57BL/6) weighing 22-25 grams were induced to anesthesia with 1/70/30% halothane/nitrous oxide/oxygen, on a temperature controlled blanket. A line of PAF-R deficient mice (PAF receptor Knock-out mice), as described in S. Ishi et al., “Impaired anaphylactic responses with intact sensitivity to endotoxin in mice lacking a platelet-activating factor,” J. Exp. Med., vol. 187, pp. 1779-1788 (1998), was also used. The common carotid and external carotid arteries were exposed and dissected from surrounding tissue; the right external carotid artery was ligated. The right common carotid was temporarily occluded. A small arteriotomy to the external carotid artery was made so the occluding filament was introduced and advanced to the common carotid artery, and redirected into the internal carotid artery. The filament was advanced so that the blunted tip was placed in the anterior cerebral artery and the side of the filament occluded the origin of the middle cerebral artery. The common carotid artery was gently released, restoring blood flow to the carotid system. The wound was inspected for bleeding. All retracting sutures were removed, and the wound was closed. The anesthetic gases were stopped, and the animal was given oxygen until fully awake, then returned to his cage. After 60 minutes of occlusion, animals were reperfused by removal occluding filament. Animals were placed under anesthesia again, the occluding suture was delicately withdrawn from the arterial lumen, restoring blood flow to the territory of the middle cerebral artery. The wound was closed by interrupted silk sutures. The anesthetic gases were stopped, and the animal was given oxygen until fully awake.
The treated animals received a single i.p. injection of LAU-8080 (30 mg/kg) at 1 hour after reperfusion started, and control animals received vehicle injection (2-hydroxypropyl-β-cyclodextrin).
Scores were collected according Bederson's classification: a score of “0” indicates the animal moved freely changing directions. […]
(§1) Volumetric changes in infarcted brain regions in mice after 1 hour MCAO and 24-48 hours reperfusion was obtained by staining brain slices 1 mm thick with 2% 2,3,5-triphenyltetrazolium chloride (TTC). Quantitative analysis of the volume of the infarcted area was obtained by image-analysis.

[3] = test system: photoreceptor cells; assay: light-induced retina damage model (bright light-treated photoreceptors); assay type: in vivo, Sprague-Dawley rats; conditions: rat, 30 mg/kg i.p. pretreatment
Description: The light-induced retina damage model selectively promotes the killing of photoreceptor cells as it occurs in age-related macular degeneration and retinitis pigmentosa.
Sprague-Dawley rats (150-175 g males) were dark adapted for 3 days. Two hours before light treatment they were injected i.p. with LAU-8080 (30 mg/kg) suspended in a vehicle (cyclo-dextrin) or just vehicle. A third group received no injection. Rats were placed in 5 inch diameter cylindrical lucite tubes which were then placed within an 8-light array of 10 inch diameter fluorescent lights (40 Watt, G.E. cool white; 350 μE/m^2·s; 25 klux) for up to 5 hours. After 10 days in darkness, eyes were collected and prepared for histology. […] The profile of the photoreceptor nuclear layer of the light+vehicle, light+vehicle+LAU-8080, and dark rat retinas were compared. The percent cell loss under each condition was calculated against the dark animal controls.

[4] = test system: PAF binding site of the synaptosomal, plasma membrane; conditions: cited from earlier work
[5] = test system: middle cerebral artery occlusion and reperfusion; assay: MCAO and reperfusion stroke model in PAF receptor Knock-out mice; assay type: in vivo, PAF-R deficient mice (PAF receptor Knock-out mice)
From the text: To study the properties of LAU-8080 in an animal model of stroke, the technique of occluding the middle cerebral artery (middle cerebral artery occlusion, “MCAO”) which has been adapted to the mouse was used. The mouse middle cerebral artery occlusion is a well-recognized model of focal stroke as neuronal damage occurs when ischemia-reperfusion damages the brain. Adult male mice (C57BL/6) weighing 22-25 grams were induced to anesthesia with 1/70/30% halothane/nitrous oxide/oxygen, on a temperature controlled blanket. A line of PAF-R deficient mice (PAF receptor Knock-out mice), as described in S. Ishi et al., “Impaired anaphylactic responses with intact sensitivity to endotoxin in mice lacking a platelet-activating factor,” J. Exp. Med., vol. 187, pp. 1779-1788 (1998), was also used. The common carotid and external carotid arteries were exposed and dissected from surrounding tissue; the right external carotid artery was ligated. The right common carotid was temporarily occluded. […]
as §1

[6] = test system: PAF binding sites of microsomal membranes; conditions: cited from earlier work

Molecule | angiogenesis (vessel length and clock hours) induced by pellet ([1]; pellet with 500 ng cPAF, 6 days after implantation, versus vehicle pellet) | neurological scores (Bederson's classification) ([2]; 30 mg/kg i.p. 1 hour after reperfusion, noticeable 24 hours after reperfusion) | infarct volume ([2]; 1 hour MCAO and 48 hours reperfusion, injection 1 hour after reperfusion onset, p<0.0026) | survival ([2]; 1 hour MCAO, single i.p. 30 mg/kg 1 hour after onset of reperfusion, followed-up 14 days, n=20, p<0.04 vs vehicle) [%] | effect of injection at different times during the procedure versus 1 hour after reperfusion ([2]; MCAO mice) | cell loss in an area near the center of the photodamage region [3] | depth of photoreceptor nuclear layer [3] [cells deep] | displacement of PAF [4] | angiogenesis (vessel length and clock hours of circumferential neovascularization) ([1]; 500 ng cPAF pellet, LAU-8080 30 μg/g body weight i.p. once a day, 6 days, p<0.05) | survival ([5]; PAF knock-out mice, injection one hour after reperfusion, p<0.0074) | infarct volume ([5]; PAF receptor Knock-out mice) | displacement of PAF [6]
1-O-alkyl-2-acetyl-sn-glycero-3-phosphocholine [PAF, reference compound] | strongly induced |  |  |  |  |  |  |  |  |  |  | 
COc1ccc(NC(=S)N2CCc3c(sc4c3C(c3ccccc3Cl)=NCc3nnc(C)n3-4)C2)cc1 [LAU-8080, 6-(2-chlorophenyl)-9-[(4-methoxyphenyl)thiocarbamoyl]-1-methyl-7,8,9,10-tetrahydro-4H-pyrido[4′,3′:4,5]thieno[3,2-f]-1,2,4-triazolo[4,3-a]-1,4-diazepine] |  | significative improvement | significant reduction | 35 | did not differ significantly | complete lack of cell loss | 12 | not from the synaptosomal, plasma membrane | significantly reduced | significative protection | small reduction | displace PAF from microsomal membranes

Reference: patent publication US6987105B2, “Synthesis and use of thienotriazolodiazepines” (Board of Supervisors of Louisiana State University And …, priority 2000, dated 2006)
